Source: publication PMC9986306, “Beyond CBD: Inhibitory effects of lesser studied phytocannabinoids on human voltage-gated sodium channels” (Frontiers in Physiology, 2023)
Marks after values point to notes of the source that are not given here.

How the values were obtained:
Assay in all cases: Planar patch-clamp, biophysical properties (activation, SSFI, recovery from SSFI)
Type in all cases: cell-based
[1] = target: T1, human NaV1.1 channel (SCN1A, HEK293T cells) (Homo sapiens, UniProt P35498); conditions: change vs vehicle DMSO at IC50 concentration (CBD 18.5 μM, CBGA 13.6 μM, CBDVA 50 μM)
T1 construct: expressed in transfected cells

[2] = target: T2, human NaV1.2 channel (SCN2A, HEK293T cells) (Homo sapiens, UniProt Q99250); conditions: change vs vehicle DMSO at IC50 concentration (CBD 18.4 μM, CBGA 14.7 μM, CBDVA 60 μM)
T2 construct: expressed in transfected cells
T2 sequence (Q99250 whole entry): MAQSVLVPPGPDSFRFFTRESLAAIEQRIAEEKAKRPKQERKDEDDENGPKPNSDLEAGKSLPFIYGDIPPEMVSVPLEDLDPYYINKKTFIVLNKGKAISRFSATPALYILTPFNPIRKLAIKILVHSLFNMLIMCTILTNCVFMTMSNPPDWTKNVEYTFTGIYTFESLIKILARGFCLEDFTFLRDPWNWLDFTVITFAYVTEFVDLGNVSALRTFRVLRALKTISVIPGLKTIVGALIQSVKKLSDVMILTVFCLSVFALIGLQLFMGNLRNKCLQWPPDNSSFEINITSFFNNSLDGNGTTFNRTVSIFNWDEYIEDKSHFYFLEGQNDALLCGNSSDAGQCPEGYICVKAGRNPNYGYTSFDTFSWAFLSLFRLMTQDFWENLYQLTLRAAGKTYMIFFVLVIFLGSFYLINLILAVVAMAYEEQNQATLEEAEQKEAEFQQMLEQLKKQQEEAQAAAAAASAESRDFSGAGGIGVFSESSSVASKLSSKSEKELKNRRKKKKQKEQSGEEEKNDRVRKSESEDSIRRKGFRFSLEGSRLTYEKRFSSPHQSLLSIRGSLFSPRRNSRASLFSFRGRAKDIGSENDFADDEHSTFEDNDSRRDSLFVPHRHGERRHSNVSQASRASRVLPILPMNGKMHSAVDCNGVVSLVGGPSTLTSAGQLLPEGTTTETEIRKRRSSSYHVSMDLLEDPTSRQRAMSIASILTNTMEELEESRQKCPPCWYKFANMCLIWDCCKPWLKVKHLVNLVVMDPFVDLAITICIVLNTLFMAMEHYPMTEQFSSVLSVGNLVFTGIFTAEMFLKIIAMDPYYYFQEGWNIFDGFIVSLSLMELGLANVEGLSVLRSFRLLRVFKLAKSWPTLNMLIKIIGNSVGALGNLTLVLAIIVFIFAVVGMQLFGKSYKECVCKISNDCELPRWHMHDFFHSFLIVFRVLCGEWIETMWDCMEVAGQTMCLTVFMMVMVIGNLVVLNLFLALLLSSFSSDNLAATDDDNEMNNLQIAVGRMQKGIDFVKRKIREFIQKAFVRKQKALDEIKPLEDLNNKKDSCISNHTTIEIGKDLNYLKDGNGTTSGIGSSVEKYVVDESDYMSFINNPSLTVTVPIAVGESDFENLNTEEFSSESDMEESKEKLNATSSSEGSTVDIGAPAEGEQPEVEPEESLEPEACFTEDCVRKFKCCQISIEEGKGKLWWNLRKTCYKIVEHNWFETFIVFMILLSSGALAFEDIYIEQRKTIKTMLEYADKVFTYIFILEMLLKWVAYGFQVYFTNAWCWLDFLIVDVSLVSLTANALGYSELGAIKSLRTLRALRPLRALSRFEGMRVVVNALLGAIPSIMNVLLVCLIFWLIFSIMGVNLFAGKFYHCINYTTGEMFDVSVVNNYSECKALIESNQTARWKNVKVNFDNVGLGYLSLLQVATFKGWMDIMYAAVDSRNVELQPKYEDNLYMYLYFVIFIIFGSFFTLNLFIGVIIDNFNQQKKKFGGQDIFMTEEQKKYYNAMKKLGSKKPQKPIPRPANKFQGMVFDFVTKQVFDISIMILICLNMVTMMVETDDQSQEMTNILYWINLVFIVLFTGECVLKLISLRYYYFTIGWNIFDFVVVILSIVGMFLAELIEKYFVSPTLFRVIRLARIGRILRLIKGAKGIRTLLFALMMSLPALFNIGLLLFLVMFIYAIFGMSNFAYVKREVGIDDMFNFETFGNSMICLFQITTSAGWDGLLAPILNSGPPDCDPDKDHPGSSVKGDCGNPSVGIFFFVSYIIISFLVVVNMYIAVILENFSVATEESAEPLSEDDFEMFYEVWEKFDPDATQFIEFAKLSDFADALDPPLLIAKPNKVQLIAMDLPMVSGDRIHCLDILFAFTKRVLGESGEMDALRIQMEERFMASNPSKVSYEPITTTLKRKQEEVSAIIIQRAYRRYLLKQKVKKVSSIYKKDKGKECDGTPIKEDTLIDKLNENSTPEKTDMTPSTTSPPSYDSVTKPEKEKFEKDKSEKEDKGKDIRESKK

[3] = target: T3, human NaV1.6 channel (SCN8A, CHO cells) (Homo sapiens, UniProt Q9UQD0); conditions: change vs vehicle DMSO at IC50 concentration (CBD 16.6 μM, CBGA 12.0 μM, CBDVA 24.1 μM)
T3 construct: expressed in transfected cells
T3 sequence (Q9UQD0 whole entry): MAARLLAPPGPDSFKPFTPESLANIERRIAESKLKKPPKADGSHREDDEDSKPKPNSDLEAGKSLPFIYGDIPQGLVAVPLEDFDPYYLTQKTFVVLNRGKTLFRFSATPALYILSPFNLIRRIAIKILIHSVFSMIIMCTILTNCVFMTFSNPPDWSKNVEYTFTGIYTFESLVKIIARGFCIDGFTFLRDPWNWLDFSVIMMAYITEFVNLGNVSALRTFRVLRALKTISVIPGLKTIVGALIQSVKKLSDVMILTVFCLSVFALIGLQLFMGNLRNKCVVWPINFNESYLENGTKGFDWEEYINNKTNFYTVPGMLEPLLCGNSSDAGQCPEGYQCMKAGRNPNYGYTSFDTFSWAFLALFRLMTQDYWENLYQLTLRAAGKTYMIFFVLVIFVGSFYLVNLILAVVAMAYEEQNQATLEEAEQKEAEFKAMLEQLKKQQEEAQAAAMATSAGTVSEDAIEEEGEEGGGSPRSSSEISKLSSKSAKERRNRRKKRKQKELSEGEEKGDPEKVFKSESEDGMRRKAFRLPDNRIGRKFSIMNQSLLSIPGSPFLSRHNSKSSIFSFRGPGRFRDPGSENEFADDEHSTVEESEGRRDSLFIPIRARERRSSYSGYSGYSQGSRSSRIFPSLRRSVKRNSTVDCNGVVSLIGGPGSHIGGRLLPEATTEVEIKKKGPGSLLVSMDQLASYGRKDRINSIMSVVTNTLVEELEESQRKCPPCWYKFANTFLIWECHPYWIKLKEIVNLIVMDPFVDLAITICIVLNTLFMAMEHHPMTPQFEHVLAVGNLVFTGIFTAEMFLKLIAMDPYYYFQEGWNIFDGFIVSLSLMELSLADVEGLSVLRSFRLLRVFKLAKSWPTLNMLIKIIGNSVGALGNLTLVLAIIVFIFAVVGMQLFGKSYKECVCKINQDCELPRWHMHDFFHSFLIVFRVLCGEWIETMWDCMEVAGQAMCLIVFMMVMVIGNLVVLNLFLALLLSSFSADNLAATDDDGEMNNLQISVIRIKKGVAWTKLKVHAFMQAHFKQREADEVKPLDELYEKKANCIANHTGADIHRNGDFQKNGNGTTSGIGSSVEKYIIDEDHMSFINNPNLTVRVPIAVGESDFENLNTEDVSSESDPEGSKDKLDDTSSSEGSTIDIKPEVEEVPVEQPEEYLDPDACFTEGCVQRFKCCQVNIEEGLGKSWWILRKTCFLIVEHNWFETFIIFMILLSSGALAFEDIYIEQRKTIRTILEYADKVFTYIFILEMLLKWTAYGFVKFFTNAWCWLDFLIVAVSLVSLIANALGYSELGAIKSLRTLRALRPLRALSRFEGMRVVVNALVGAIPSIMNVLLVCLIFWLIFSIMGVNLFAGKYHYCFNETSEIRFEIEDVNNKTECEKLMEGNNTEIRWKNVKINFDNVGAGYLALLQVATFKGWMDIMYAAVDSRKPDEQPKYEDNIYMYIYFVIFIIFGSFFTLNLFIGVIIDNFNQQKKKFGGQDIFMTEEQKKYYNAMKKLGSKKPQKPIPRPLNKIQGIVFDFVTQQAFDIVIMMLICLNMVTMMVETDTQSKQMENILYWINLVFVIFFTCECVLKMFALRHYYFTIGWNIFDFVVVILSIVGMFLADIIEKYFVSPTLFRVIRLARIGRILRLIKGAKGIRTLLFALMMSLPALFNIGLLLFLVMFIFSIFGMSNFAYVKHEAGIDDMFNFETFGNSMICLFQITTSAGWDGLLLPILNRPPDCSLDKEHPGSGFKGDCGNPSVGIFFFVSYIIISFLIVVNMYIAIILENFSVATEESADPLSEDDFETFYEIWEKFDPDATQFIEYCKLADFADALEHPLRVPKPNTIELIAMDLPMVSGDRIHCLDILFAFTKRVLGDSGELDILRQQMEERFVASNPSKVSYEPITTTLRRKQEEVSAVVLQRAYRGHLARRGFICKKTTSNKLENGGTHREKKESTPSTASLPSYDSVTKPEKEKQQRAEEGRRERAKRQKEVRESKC

In the case of `CCCCCc1cc(O)c(C/C=C(\C)CCC=C(C)C)c(O)c1C(=O)O` [CBGA, cannabigerolic acid], the “Inactivation △ V0.5 inact” value ([1]; SSFI) is reported as 1.0 ± 1.29 mV, the “Activation △ Slope factor” value [1] is reported as 3.1 ± 1.7 and the “Activation △ V0.5 act” value [1] is reported as 3.9 ± 1.2** mV. For the same compound, the “Inactivation △ τinact SSFI at 5 mV” value [1] was 0.4 ± 0.1*, the “Inactivation △ V0.5 inact” value ([2]; SSFI) was −3.0 ± 1.5 mV and the “Inactivation △ slope factor” value ([2]; SSFI) was 2.5 ± 0.8**. The “Activation △ Slope factor” value [2] was 1.9 ± 1.0, the “Activation △ V0.5 act” value [2] was 1.8 ± 2.3 mV and the “Inactivation △ τinact SSFI at 5 mV” value [2] was 0.08 ± 0.1. The “Inactivation △ V0.5 inact” value ([3]; SSFI) was −0.5 ± 2.4 mV, the “Inactivation △ slope factor” value ([3]; SSFI) was 1.1 ± 0.2** and the “Activation △ Slope factor” value [3] was −0.4 ± 0.3. The “Activation △ V0.5 act” value [3] was 0.1 ± 1.6 mV and the “Inactivation △ τinact SSFI at 5 mV” value [3] was 0.2 ± 0.2.
